Measured values: publication PMC7930822, “Phase I Trial to Evaluate the Tolerance, Pharmacokinetics and Efficacy of the Broad-Spectrum ErbB Family Inhibitor Larotinib Mesylate in Patients With Advanced Solid Tumors” (Frontiers in Pharmacology, 2021)
Counter-ions that a name gives are not always drawn.

Assays:
[1] = tested on: patients with advanced solid tumors; experiment: tumor evaluation by RECIST version 1.1; type: in vivo, human; conditions: for Disease control, n (%): CR, PR and SD; for Objective response, n (%): complete plus partial response
Method: Tumor evaluation was performed at screening, the end of cycle 1, and every two cycles of subsequent treatment according to RECIST version 1.1. The disease control rate (DCR) (including CR, PR and SD), objective remission rate (ORR) (including CR and PR), and progression-free survival (PFS) were also evaluated.
Blood samples for EGFR mutation site analyses were collected in screening, cycle 1 day 29, cycle 3 days 29 and every 8 weeks for the subsequent follow-up. Second-generation sequencing method was used to detect the amplification and mutation of the related tumor genes.

[2] = tested on: EGFR with the L858R mutation; parameters: method as in data not published; conditions: ref data not published; cited from earlier work
[3] = molecular target: Bruton’s tyrosine kinase (BTK); parameters: method as in data not published; conditions: ref data not published; cited from earlier work

COc1cc2ncnc(Nc3ccc(F)c(Cl)c3)c2cc1OCCCN1C[C@@H]2OCCO[C@@H]2C1 [larotinib mesylate]
7 (29.2): Progressive disease, n (%) ([1]; Total (n = 24))
3 (100): Disease control, n (%) ([1]; 220 mg (n = 3)) | Disease control, n (%) ([1]; 350 mg (n = 3)) | Stable disease, n (%) ([1]; 400 mg (n = 3)) | Disease control, n (%) ([1]; 400 mg (n = 3))
4 (66.7): Progressive disease, n (%) ([1]; 300 mg (n = 6))
2 (66.7): Stable disease, n (%) ([1]; 50 mg (n = 3)) | Disease control, n (%) ([1]; 50 mg (n = 3)) | Stable disease, n (%) ([1]; 100 mg (n = 3)) | Disease control, n (%) ([1]; 100 mg (n = 3)) | Stable disease, n (%) ([1]; 150 mg (n = 3)) | Disease control, n (%) ([1]; 150 mg (n = 3)) | Stable disease, n (%) ([1]; 220 mg (n = 3)) | Stable disease, n (%) ([1]; 350 mg (n = 3))
15: stable disease as best overall response, patients ([1]; all dose levels)
0.196 µM: IC50 [3]
15 (62.5): Stable disease, n (%) ([1]; Total (n = 24))
1: cases of PR among five patients with EGFR mutations at baseline ([1]; after cycle one)
2 (33.3): Stable disease, n (%) ([1]; 300 mg (n = 6)) | Disease control, n (%) ([1]; 300 mg (n = 6))
1 (33.3): Progressive disease, n (%) ([1]; 50 mg (n = 3)) | Progressive disease, n (%) ([1]; 100 mg (n = 3)) | Progressive disease, n (%) ([1]; 150 mg (n = 3)) | Partial response, n (%) ([1]; 220 mg (n = 3)) | Objective response, n (%) ([1]; 220 mg (n = 3)) | Partial response, n (%) ([1]; 350 mg (n = 3)) | Objective response, n (%) ([1]; 350 mg (n = 3))
19 cycles: duration of maintained PR ([1]; NSCLC patient, 350-mg group, no EGFR-sensitive mutations)
0 (0): Complete response, n (%) ([1]; 50 mg (n = 3)) | Partial response, n (%) ([1]; 50 mg (n = 3)) | Objective response, n (%) ([1]; 50 mg (n = 3)) | Complete response, n (%) ([1]; 100 mg (n = 3)) | Partial response, n (%) ([1]; 100 mg (n = 3)) | Objective response, n (%) ([1]; 100 mg (n = 3)) | Complete response, n (%) ([1]; 150 mg (n = 3)) | Partial response, n (%) ([1]; 150 mg (n = 3)) | Objective response, n (%) ([1]; 150 mg (n = 3)) | Complete response, n (%) ([1]; 220 mg (n = 3)) | Progressive disease, n (%) ([1]; 220 mg (n = 3)) | Complete response, n (%) ([1]; 300 mg (n = 6)) | Partial response, n (%) ([1]; 300 mg (n = 6)) | Objective response, n (%) ([1]; 300 mg (n = 6)) | Complete response, n (%) ([1]; 350 mg (n = 3)) | Progressive disease, n (%) ([1]; 350 mg (n = 3)) | Complete response, n (%) ([1]; 400 mg (n = 3)) | Partial response, n (%) ([1]; 400 mg (n = 3)) | Progressive disease, n (%) ([1]; 400 mg (n = 3)) | Objective response, n (%) ([1]; 400 mg (n = 3)) | Complete response, n (%) ([1]; Total (n = 24))
2 (8.3): Partial response, n (%) ([1]; Total (n = 24)) | Objective response, n (%) ([1]; Total (n = 24))
70.8%: overall disease control rate (DCR) ([1]; all dose levels, 24 evaluable)
17 (70.8): Disease control, n (%) ([1]; Total (n = 24))
0.000563 µM: IC50 [2]
4: cases of SD among five patients with EGFR mutations at baseline ([1]; after cycle one)
